For one data set, the target named is Mushroom tyrosinase (Agaricus bisporus, UniProt O42713+Q00024+C7FF04+C7FF05). As to the kind of experiment: Inhibition of mushroom tyrosinase using tyrosine as substrate incubated for 20 mins followed by substrate addition and measured every 10 mins for 30 mins.
Data set [1] in a line: Inhibition of Elastase (unknown origin) using N-methoxysuccinyl-Ala-Ala-Pro-Val-p-nitroanilide as substrate incubated for 20 mins followed by substrate addition and measured after 40 mins. On the set-up: species or system Homo sapiens.
Compound in data set [2]: COc1cc(C)c2c(=O)c3ccccc3oc2c1OC
In words: Uncompetitive inhibition of Tyrosinase (unknown origin) assessed as maximal velocity at 8 uM using tyrosine as substrate incubated for 20 mins followed by substrate addition and measured every 10 mins for 30 mins by Lineweaver-Burk plot analysis (reference value: […] +/- […] /min). Conditions: Homo sapiens, time 50.0 min.

Compound in data set [3]: Cc1cc(O)c(O)c2oc3cc(O)ccc3c(=O)c12
In words: Uncompetitive inhibition of Tyrosinase (unknown origin) assessed as Michaelis-Menten constant at 3.3 uM using tyrosine as substrate incubated for 20 mins followed by substrate addition and measured every 10 mins for 30 mins by Lineweaver-Burk plot analysis (reference value: […] +/- […] mM). Conditions: Homo sapiens, time 50.0 min.

Compound in data set [4]: Cc1cc(O)c(O)c2oc3cc(O)ccc3c(=O)c12
In words: Uncompetitive inhibition of Tyrosinase (unknown origin) assessed as Michaelis-Menten constant at 6.6 uM using tyrosine as substrate incubated for 20 mins followed by substrate addition and measured every 10 mins for 30 mins by Lineweaver-Burk plot analysis (reference value: […] +/- […] mM). Conditions: Homo sapiens, time 50.0 min.

Compound in data set [5]: COc1cc(C)c2c(=O)c3ccccc3oc2c1OC
As to the kind of experiment: Uncompetitive inhibition of Tyrosinase (unknown origin) assessed as Michaelis-Menten constant at 16 uM using tyrosine as substrate incubated for 20 mins followed by substrate addition and measured every 10 mins for 30 mins by Lineweaver-Burk plot analysis (reference value: […] +/- […] mM). Conditions: Homo sapiens, time 50.0 min.

Compound in data set [6]: COc1cc(C)c2c(=O)c3ccccc3oc2c1OC
As to the kind of experiment: Uncompetitive inhibition of Tyrosinase (unknown origin) assessed as Michaelis-Menten constant at 4 uM using tyrosine as substrate incubated for 20 mins followed by substrate addition and measured every 10 mins for 30 mins by Lineweaver-Burk plot analysis (reference value: […] +/- […] mM). Conditions: Homo sapiens, time 50.0 min.

Compound in data set [7]: COc1cc(C)c2c(=O)c3ccccc3oc2c1OC
As to the kind of experiment: Uncompetitive inhibition of Tyrosinase (unknown origin) assessed as Michaelis-Menten constant at 8 uM using tyrosine as substrate incubated for 20 mins followed by substrate addition and measured every 10 mins for 30 mins by Lineweaver-Burk plot analysis (reference value: […] +/- […] mM). Conditions: Homo sapiens, time 50.0 min.

Compound in data set [8]: COc1cc(C)c2c(=O)c3ccccc3oc2c1OC
In words: Uncompetitive inhibition of Tyrosinase (unknown origin) assessed as Michaelis-Menten constant at 2 uM using tyrosine as substrate incubated for 20 mins followed by substrate addition and measured every 10 mins for 30 mins by Lineweaver-Burk plot analysis (reference value: […] +/- […] mM). Conditions: Homo sapiens, time 50.0 min.

Compound in data set [9]: Cc1cc(O)c(O)c2oc3cc(O)ccc3c(=O)c12
In words: Uncompetitive inhibition of Tyrosinase (unknown origin) assessed as Michaelis-Menten constant at 1.65 uM using tyrosine as substrate incubated for 20 mins followed by substrate addition and measured every 10 mins for 30 mins by Lineweaver-Burk plot analysis (reference value: […] +/- […] mM). Conditions: Homo sapiens, time 50.0 min.

Compound in data set [10]: Cc1cc(O)c(O)c2oc3cc(O)ccc3c(=O)c12
In words: Uncompetitive inhibition of Tyrosinase (unknown origin) assessed as maximal velocity at 3.30 uM using tyrosine as substrate incubated for 20 mins followed by substrate addition and measured every 10 mins for 30 mins by Lineweaver-Burk plot analysis (reference value: […] +/- […] /min). Conditions: Homo sapiens; dose 3.3 µM, time 50.0 min.

Compound in data set [11]: Cc1cc(O)c(O)c2oc3cc(O)ccc3c(=O)c12
In words: Uncompetitive inhibition of Tyrosinase (unknown origin) assessed as maximal velocity at 13.2 uM using tyrosine as substrate incubated for 20 mins followed by substrate addition and measured every 10 mins for 30 mins by Lineweaver-Burk plot analysis (reference value: […] +/- […] /min). Conditions: Homo sapiens, time 50.0 min.

Compound in data set [12]: COc1cc(C)c2c(=O)c3ccccc3oc2c1OC
In words: Uncompetitive inhibition of Tyrosinase (unknown origin) assessed as maximal velocity at 16 uM using tyrosine as substrate incubated for 20 mins followed by substrate addition and measured every 10 mins for 30 mins by Lineweaver-Burk plot analysis (reference value: […] +/- […] /min). Conditions: Homo sapiens, time 50.0 min.

Compound in data set [13]: Cc1cc(O)c(O)c2oc3cc(O)ccc3c(=O)c12
As to the kind of experiment: Uncompetitive inhibition of Tyrosinase (unknown origin) assessed as maximal velocity at 1.65 uM using tyrosine as substrate incubated for 20 mins followed by substrate addition and measured every 10 mins for 30 mins by Lineweaver-Burk plot analysis (reference value: […] +/- […] /min). Conditions: Homo sapiens, time 50.0 min.

Compound in data set [14]: Cc1cc(O)c(O)c2oc3cc(O)ccc3c(=O)c12
In words: Uncompetitive inhibition of Tyrosinase (unknown origin) assessed as Michaelis-Menten constant at 13.2 uM using tyrosine as substrate incubated for 20 mins followed by substrate addition and measured every 10 mins for 30 mins by Lineweaver-Burk plot analysis (reference value: […] +/- […] mM). Conditions: Homo sapiens, time 50.0 min.

Compound in data set [15]: Cc1cc(O)c(O)c2oc3cc(O)ccc3c(=O)c12
In words: Uncompetitive inhibition of Tyrosinase (unknown origin) assessed as maximal velocity at 6.60 uM using tyrosine as substrate incubated for 20 mins followed by substrate addition and measured every 10 mins for 30 mins by Lineweaver-Burk plot analysis (reference value: […] +/- […] /min). Conditions: Homo sapiens; dose 6.6 µM, time 50.0 min.

Compound in data set [16]: COc1cc(C)c2c(=O)c3ccccc3oc2c1OC
In words: Uncompetitive inhibition of Tyrosinase (unknown origin) assessed as maximal velocity at 4 uM using tyrosine as substrate incubated for 20 mins followed by substrate addition and measured every 10 mins for 30 mins by Lineweaver-Burk plot analysis (reference value: […] +/- […] /min). Conditions: Homo sapiens, time 50.0 min.

Compound in data set [17]: COc1cc(C)c2c(=O)c3ccccc3oc2c1OC
As to the kind of experiment: Uncompetitive inhibition of Tyrosinase (unknown origin) assessed as maximal velocity at 2 uM using tyrosine as substrate incubated for 20 mins followed by substrate addition and measured every 10 mins for 30 mins by Lineweaver-Burk plot analysis (reference value: […] +/- […] /min). Conditions: Homo sapiens, time 50.0 min.

For orientation: IC50 means the concentration at which inhibition is half-maximal. A high value points to weaker potency in that assay. One may read the Km as the concentration of substrate that gives half-maximal velocity.

Consider `O=c1c2ccccc2oc2ccccc12` [XANTHONE], for which the IC50 at Mushroom tyrosinase stood at 8.84 µM.

`COc1ccc2oc3ccccc3c(=O)c2c1` gave an IC50 against Mushroom tyrosinase of 8.47 µM.

Molecule `COc1cccc2oc3ccccc3c(=O)c12` came in with a 50% inhibitory concentration (IC50) at Mushroom tyrosinase of 5.14 µM.

On Mushroom tyrosinase, `O=c1c2ccccc2oc2ccc(O)cc12` yielded a half-inhibitory concentration (IC50) of 5.6 µM.

In the case of `COc1ccc2c(=O)c3c(C)c(Cl)c(OC)c(OC)c3oc2c1`, at Mushroom tyrosinase, the IC50 was found to be 1.9 µM.

`Cc1cc(O)c(O)c2oc3cc(O)ccc3c(=O)c12` gave an IC50 on Mushroom tyrosinase of 3.28 µM.

On to `O=c1c2ccccc2oc2c(O)c(O)ccc12` [3,4-DIHYDROXYXANTHONE], for which, at Mushroom tyrosinase, the IC50 turned out to be 5.12 µM.

On Mushroom tyrosinase, `COc1ccc2c(=O)c3ccccc3oc2c1` showed a half-maximal inhibitory concentration (IC50) of 5.14 µM.

For the molecule `Cc1cc(O)c(O)c2oc3ccccc3c(=O)c12`, the IC50 at Mushroom tyrosinase stood at 8.93 µM. Compared with the last molecule, the IC50 is about 1.7-fold higher.

`COc1cc(C(Br)Br)c2c(=O)c3ccccc3oc2c1OC` displayed an IC50 against Mushroom tyrosinase of 3.37 µM.

Consider `COc1cc(C)c2c(=O)c3ccccc3oc2c1OC`, for which the IC50 at Mushroom tyrosinase stood at 2 µM. Against the preceding molecule, the IC50 is about 1.7-fold lower.

For `COc1cc(C=O)c2c(=O)c3ccccc3oc2c1OC`, at Mushroom tyrosinase, the IC50 amounted to 29.13 µM.

As for `O=c1c2ccccc2oc2ccc(O)c(O)c12`, the IC50 against Mushroom tyrosinase came out at 7.8 µM.

With `O=c1c2ccc(O)cc2oc2cc(O)ccc12`, the half-maximal inhibitory concentration (IC50) in data set [1] was found to be 91.8 µM; against Mushroom tyrosinase, 4.42 µM.

`COc1cccc2c(=O)c3ccccc3oc12`: the IC50 on Mushroom tyrosinase was 5.33 µM. That is a single-digit micromolar value.

Consider `COc1cc2oc3ccccc3c(=O)c2cc1OC`, for which the IC50 against Mushroom tyrosinase came to 8.29 µM.

On to `O=c1c2ccccc2oc2cc(O)ccc12`, for which the half-maximal inhibitory concentration (IC50) against Mushroom tyrosinase came out at 9.26 µM.

Molecule `COc1c(O)ccc2c(=O)c3ccccc3oc12` showed an IC50 at Mushroom tyrosinase of 3.81 µM.

Regarding `O=c1c2ccccc2oc2cc(O)c(O)cc12`, on Mushroom tyrosinase, the IC50 came to 5.7 µM.

Molecule `COc1ccc2c(=O)c3c(C)c(Br)c(OC)c(OC)c3oc2c1` displayed a concentration for half-maximal inhibition (IC50) against Mushroom tyrosinase of 5.57 µM.

With `O=c1c2cc(O)ccc2oc2cccc(O)c12`, the concentration for half-maximal inhibition (IC50) against Mushroom tyrosinase was 4.52 µM.

Regarding `O=Cc1cc(O)c(O)c2oc3ccccc3c(=O)c12`, the half-maximal inhibitory concentration (IC50) on Mushroom tyrosinase is 89.37 µM. This IC50 is about 20-fold higher than that of the molecule before.

Turning to `COc1ccc2c(=O)c3ccccc3oc2c1OC`, the concentration for half-maximal inhibition (IC50) on Mushroom tyrosinase was found to be 5.12 µM.

With `COc1ccc2c(=O)c3c(C)cc(OC)c(OC)c3oc2c1`, on Mushroom tyrosinase, the concentration for half-maximal inhibition (IC50) turned out to be 2.24 µM.

As to `COc1ccc2oc3ccccc3c(=O)c2c1OC`, the concentration for half-maximal inhibition (IC50) on Mushroom tyrosinase worked out at 4.02 µM.

With `COc1ccc2c(=O)c3ccccc3oc2c1O`, the IC50 against Mushroom tyrosinase came out at 5.2 µM.

Molecule `COc1cc(C=O)c2c(=O)c3ccc(O)cc3oc2c1OC` yielded an IC50 at Mushroom tyrosinase of 3.16 µM. This IC50 is about 1.6-fold lower than that of the molecule before.

At Mushroom tyrosinase, `O=c1c2ccccc2oc2c(O)cccc12` gave an IC50 of 8.46 µM. This IC50 lies about 2.7-fold higher than the previous one.

With H-MAAPVCK-OH, inhibition in data set [1] was half-maximal at 0.26 µM (IC50).

Molecule `COc1c(O)cc2oc3ccccc3c(=O)c2c1O` had an IC50 against Mushroom tyrosinase of 3.01 µM.

B1: Tyrosinase (Homo sapiens), P14679 (protein)
chain: MLLAVLYCLLWSFQTSAGHFPRACVSSKNLMEKECCPPWSGDRSPCGQLSGRGSCQNILLSNAPLGPQFPFTGVDDRESWPSVFYNRTCQCSGNFMGFNCGNCKFGFWGPNCTERRLLVRRNIFDLSAPEKDKFFAYLTLAKHTISSDYVIPIGTYGQMKNGSTPMFNDINIYDLFVWMHYYVSMDALLGGSEIWRDIDFAHEAPAFLPWHRLFLLRWEQEIQKLTGDENFTIPYWDWRDAEKCDICTDEYMGGQHPTNPNLLSPASFFSSWQIVCSRLEEYNSHQSLCNGTPEGPLRRNPGNHDKSRTPRLPSSADVEFCLSLTQYESGSMDKAANFSFRNTLEGFASPLTGIADASQSSMHNALHIYMNGTMSQVQGSANDPIFLLHHAFVDSIFEQWLRRHRPLQEVYPEANAPIGHNRESYMVPFIPLYRNGDFFISSKDLGYDYSYLQDSDPDSFQDYIKSYLEQASRIWSWLLGAAMVGAVLTALLAGLVSLLCRHKRKQLPEEKQPLLMEKEDYHSLYQSHL
B1: the Vmax in [2] was determined as 0.0025 min⁻¹; in data set [10], 0.0035 min⁻¹; in data set [11], 0.0028 min⁻¹; in data set [12], 0.0019 min⁻¹; in [13], 0.0037 min⁻¹; in [15], 0.0032 min⁻¹. Moreover, the Vmax in [16] came out at 0.0031 min⁻¹; in data set [17], 0.0036 min⁻¹. Also, the Km in data set [3] was determined as 51 µM; in data set [4], 46 µM; in [5], 26 µM; in data set [6] it was 41 µM; in data set [7], 27 µM; in [8] it was 53 µM. For the same molecule, the values for the Michaelis constant (Km) in data set [9] and in data set [14] were 63 µM and 28 µM, respectively.

The record behind these values is ChEMBL document CHEMBL4673324, “Xanthones for melanogenesis inhibition: Molecular docking and QSAR studies to understand their anti-tyrosinase activity” (Bioorg Med Chem, 2021).
